Measured values from article PMC12281424, “A Rac-specific competitive inhibitor of guanine nucleotide binding reduces metastasis in triple-negative breast cancer” (Cell Reports Medicine, 2025).

Assays:
[1] = target: CaMKIIδ(h) (Homo sapiens, UniProt Q13557); assay: Kinase Profiler; type: biochemical
Description: (§1) The kinase profiler was performed by the company Eurofins (Discovery, Panlab and Cerep).

[2] = target: ACK1(h) (Homo sapiens, UniProt Q07912); assay: Kinase Profiler; type: biochemical
Description: as §1

[3] = target: Glucocorticoid (Homo sapiens, UniProt P04150); assay: Safety screen; type: binding
Description: (§2) Blood cell counts, kinase profiler, safety screen, bacterial cytotoxicity, Ames, micronucleus assays were performed by the company Eurofins (France).

[4] = target: GRK1(h) (Homo sapiens, UniProt Q15835); assay: Kinase Profiler; type: biochemical
Description: (§3) Blood cell counts, kinase profiler, safety screen, bacterial cytotoxicity, Ames, micronucleus assays were performed by the company Eurofins (France). The kinase profiler was performed by the company Eurofins (Discovery, Panlab and Cerep).

[5] = target: HIPK4(h) (Homo sapiens, UniProt Q8NE63); assay: Kinase Profiler; type: biochemical
Description: as §1

[6] = target: Endothelin ETA (Homo sapiens, UniProt P25101); assay: Safety screen; type: binding
Description: as §2

[7] = target: MAPK2(m) (Mus musculus, UniProt P63085); assay: Kinase Profiler; type: biochemical
Description: as §1

[8] = target: GSK3β(h) (Homo sapiens, UniProt P49841); assay: Kinase Profiler; type: biochemical
Description: as §3

[9] = target: RAC1 (Homo sapiens, UniProt P63000); assay: Nucleotide exchange kinetics (mant-GTP/mant-GDP fluorescence); type: biochemical; design: Full-length RAC1 carrying a 6xHis tag in C-terminus was purified as previously described; 6xHis (C); made in house
Description: Figure 2 Identification of a new RAC1 inhibitor (A) Effect of A41 and NSC23766 on ruffle formation (white arrows) induced by EGF (10 ng/mL) in NIH 3T3 cells in serum-free culture medium (CTL). Inhibitors were added at indicated concentration 1 h prior to EGF stimulation. To assess cytoskeleton organization, cells were incubated with Alexa Fluor 488 phalloidin to visualize F-actin. Results shown are representative of 3 independent experiments. Corresponding concentration-response curves have been established by counting the percentages of cells with ruffles (scale bars: 10 μm). (B) Immunoblot analysis and associated quantification of RAC-GTP level and total RAC expression in NIH 3T3 cells stimulated by EGF (10 ng/mL, 5 min) and pre-incubated or not (−) with NSC23766, A41, or A415 at 10^−5 M for 1 h (∗∗∗p < 0.001 vs. controls without EGF stimulation, ^###p < 0.001 vs. controls with EGF stimulation) (N > 3). (C) Representative surface plasmon resonance (SPR) sensograms of binding of immobilized RAC1 with increasing concentrations of A41 with or without EDTA (20 mM) (N > 3). (D) Representative in vitro nucleotide exchange catalyzed by the DH-PH of TIAM (10 nM) measured by the binding of fluorescent mant-GTP (1 μM) to RAC1 (0.5 μM, preloaded with GDP) in the presence of indicated concentrations of A41 (out of N = 6). Dotted lines correspond to the experimental curves, and continuous lines represent the fit of experimental points. (E) Kobs and Kmax were determined in each condition (N = 6). (F) Predicted binding modes of A4 to the NSC23766-binding site (left) or the GDP-binding pocket of RAC1 (right). In the NSC23766-binding site of RAC1, the compound A4 (carbon atoms in blue) makes 2 hydrogen bonds (green dotted line) with Ser71 (S71) and 10 hydrophobic interactions (pink dotted line) with Ala3 (A3), Lys5 (K5), Val36 (V36), Trp56 (W56), Tyr64 (Y64), and Leu67 (L67) leading to a docking score of −6.03 kcal/mol. The GDP molecule is shown with fine line. The P loop is shown in yellow, the switch 1 in orange, and the switch 2 in green. In the GDP-binding pocket, A4 establishes 6 hydrogen bonds with Gly15 (G15), Lys16 (K16), Cys18 (C18), and Lys116 (K116), 1 carbon hydrogen bond with Lys116, and 9 hydrophobic interactions with Cys18, Ile33 (I33), Lys116, Leu119 (L119), and Leu160 (L160), resulting in a docking score of −10.32 kcal/mol.
Figure 3 Inhibitory mechanism of A41 (A–D) RAC1 activity was monitored by the change in mant-GTP/GDP fluorescence induced by its binding to or releasing from RAC1 (A–D). GDP-bound RAC1 (0.5 μM) was incubated with TRIO (10 nM) and the indicated concentrations of mant-GTP without and with A41 (5 μM) (A–C). Mant-GDP-bound RAC1 (0.5 μM) was incubated with TRIO (10 nM) and GTP (1 μM) without and with A41 (5 μM) (D). AU: arbitrary fluorescence units. All experiments were done in triplicate. Kmax and Kmin are expressed as mean ± SEM. ∗∗p < 0.01 and ∗∗∗p < 0.001 vs. TRIO. (E) Deconvoluted mass spectra generated from crude mass spectrum analyses to evaluate RAC1 photolabeling with [N3]-A41 by LC-HRMS on native protein. (F) Representative mass spectra of both labeled and unlabeled […] peptide during LC-HRMS analysis of RAC1 photolabeling with [N3]-A41 after trypsin digestion. (G) Predicted binding mode of A41 to the GDP-binding pocket of RAC1. Compound A41 (orange) makes 4 hydrogen bonds (green dotted line) with Lys16 (K16), Cys18 (C18), and Lys116 (K116), 2 carbon hydrogen bond (light green dotted line) with Val14 (V14) and Lys116 (K116), and 7 hydrophobic interactions (pink dotted line) with Cys18 (C18), Phe28 (F28), Lys116 (K116), Ala159 (A159), and Leu160 (L160). The P loop is shown in yellow, the switch 1 in orange, and the switch 2 in green.
Full-length RAC1 carrying a 6xHis tag in C-terminus was purified as previously described.[64] Full-length RAC2, RHOG, RHOA and CDC42 were purified as previously described.[64]^,[65] […]

[10] = target: Plk3(h) (Homo sapiens, UniProt Q9H4B4); assay: Kinase Profiler; type: biochemical
Sequence of Plk3(h) (Q9H4B4 whole entry): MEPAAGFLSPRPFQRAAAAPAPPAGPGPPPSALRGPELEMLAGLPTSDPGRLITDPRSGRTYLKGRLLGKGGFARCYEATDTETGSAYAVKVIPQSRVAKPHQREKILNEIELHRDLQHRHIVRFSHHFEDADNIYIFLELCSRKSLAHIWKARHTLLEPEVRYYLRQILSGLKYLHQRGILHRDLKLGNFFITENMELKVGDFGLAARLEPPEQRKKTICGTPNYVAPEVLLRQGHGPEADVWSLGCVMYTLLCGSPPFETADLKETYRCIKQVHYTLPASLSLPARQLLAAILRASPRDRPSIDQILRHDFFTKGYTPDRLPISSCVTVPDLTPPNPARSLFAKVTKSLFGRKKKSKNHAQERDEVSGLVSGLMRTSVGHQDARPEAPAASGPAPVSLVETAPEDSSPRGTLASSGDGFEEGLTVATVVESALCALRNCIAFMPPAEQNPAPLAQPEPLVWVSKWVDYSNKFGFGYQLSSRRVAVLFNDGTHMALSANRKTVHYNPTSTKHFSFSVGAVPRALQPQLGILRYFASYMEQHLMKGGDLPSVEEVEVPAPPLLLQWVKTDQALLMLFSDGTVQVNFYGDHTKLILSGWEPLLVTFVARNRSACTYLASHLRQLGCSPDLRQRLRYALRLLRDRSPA
Description: as §3

Sequence of MAPK2(m) (P63085 2-358 limits assumed): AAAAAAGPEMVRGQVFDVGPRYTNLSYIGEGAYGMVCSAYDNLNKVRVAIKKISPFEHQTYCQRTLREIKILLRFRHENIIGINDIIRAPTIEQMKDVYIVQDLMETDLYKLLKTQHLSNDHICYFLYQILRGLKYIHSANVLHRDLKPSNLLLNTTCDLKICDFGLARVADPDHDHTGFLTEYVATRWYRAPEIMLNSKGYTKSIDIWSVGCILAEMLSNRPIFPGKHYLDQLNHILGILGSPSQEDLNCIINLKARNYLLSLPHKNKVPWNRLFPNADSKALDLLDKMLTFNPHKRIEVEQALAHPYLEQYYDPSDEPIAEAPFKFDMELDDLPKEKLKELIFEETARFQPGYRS
Sequence of Endothelin ETA (P25101 21-427): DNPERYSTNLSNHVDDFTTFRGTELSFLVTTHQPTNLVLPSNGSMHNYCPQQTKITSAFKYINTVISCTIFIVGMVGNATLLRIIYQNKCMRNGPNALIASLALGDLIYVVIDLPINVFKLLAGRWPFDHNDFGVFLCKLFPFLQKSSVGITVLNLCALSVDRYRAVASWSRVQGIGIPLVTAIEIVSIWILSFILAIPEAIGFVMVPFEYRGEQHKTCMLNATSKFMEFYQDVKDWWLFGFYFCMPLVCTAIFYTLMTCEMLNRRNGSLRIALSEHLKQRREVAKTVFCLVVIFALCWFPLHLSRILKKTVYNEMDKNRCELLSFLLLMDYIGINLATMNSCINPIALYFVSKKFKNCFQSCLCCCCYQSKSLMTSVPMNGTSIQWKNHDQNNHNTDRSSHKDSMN
Sequence of GSK3β(h) (P49841 whole entry): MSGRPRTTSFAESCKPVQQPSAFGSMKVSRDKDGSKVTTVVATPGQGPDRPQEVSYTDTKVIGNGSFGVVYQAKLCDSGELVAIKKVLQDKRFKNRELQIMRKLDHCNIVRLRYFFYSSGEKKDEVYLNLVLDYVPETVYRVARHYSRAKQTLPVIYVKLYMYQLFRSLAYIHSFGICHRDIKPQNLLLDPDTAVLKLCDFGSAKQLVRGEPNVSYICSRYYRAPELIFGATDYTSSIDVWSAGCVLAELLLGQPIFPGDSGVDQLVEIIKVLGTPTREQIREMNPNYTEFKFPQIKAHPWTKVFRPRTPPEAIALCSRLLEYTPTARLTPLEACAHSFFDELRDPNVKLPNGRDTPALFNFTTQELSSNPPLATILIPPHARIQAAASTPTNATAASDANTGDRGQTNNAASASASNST
Sequence of ACK1(h) (Q07912 whole entry): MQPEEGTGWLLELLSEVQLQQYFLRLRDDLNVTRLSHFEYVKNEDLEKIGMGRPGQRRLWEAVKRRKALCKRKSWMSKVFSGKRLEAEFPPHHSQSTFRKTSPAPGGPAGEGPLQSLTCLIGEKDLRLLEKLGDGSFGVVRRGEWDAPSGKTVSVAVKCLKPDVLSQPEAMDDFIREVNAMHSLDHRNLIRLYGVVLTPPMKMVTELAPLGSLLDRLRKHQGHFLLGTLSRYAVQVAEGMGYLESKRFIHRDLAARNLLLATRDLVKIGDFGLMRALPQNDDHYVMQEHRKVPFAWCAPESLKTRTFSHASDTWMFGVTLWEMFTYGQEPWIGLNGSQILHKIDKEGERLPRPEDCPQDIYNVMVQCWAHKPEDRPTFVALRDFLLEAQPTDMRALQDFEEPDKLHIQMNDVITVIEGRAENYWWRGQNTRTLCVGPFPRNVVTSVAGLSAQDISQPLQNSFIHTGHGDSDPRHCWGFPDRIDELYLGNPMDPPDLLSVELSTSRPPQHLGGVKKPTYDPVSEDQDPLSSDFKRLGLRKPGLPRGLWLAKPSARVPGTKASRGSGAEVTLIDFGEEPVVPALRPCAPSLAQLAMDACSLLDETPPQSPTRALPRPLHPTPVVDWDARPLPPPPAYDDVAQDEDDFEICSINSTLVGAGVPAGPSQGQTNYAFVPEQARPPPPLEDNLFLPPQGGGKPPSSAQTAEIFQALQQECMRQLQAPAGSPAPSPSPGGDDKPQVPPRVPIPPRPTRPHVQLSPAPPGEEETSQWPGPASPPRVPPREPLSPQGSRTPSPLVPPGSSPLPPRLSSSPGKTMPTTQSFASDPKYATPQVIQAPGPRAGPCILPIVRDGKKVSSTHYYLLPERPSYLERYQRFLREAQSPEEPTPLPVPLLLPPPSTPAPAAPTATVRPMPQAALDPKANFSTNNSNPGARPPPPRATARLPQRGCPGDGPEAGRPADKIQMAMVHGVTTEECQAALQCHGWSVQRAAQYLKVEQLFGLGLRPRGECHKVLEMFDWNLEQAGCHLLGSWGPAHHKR
Sequence of CaMKIIδ(h) (Q13557 whole entry): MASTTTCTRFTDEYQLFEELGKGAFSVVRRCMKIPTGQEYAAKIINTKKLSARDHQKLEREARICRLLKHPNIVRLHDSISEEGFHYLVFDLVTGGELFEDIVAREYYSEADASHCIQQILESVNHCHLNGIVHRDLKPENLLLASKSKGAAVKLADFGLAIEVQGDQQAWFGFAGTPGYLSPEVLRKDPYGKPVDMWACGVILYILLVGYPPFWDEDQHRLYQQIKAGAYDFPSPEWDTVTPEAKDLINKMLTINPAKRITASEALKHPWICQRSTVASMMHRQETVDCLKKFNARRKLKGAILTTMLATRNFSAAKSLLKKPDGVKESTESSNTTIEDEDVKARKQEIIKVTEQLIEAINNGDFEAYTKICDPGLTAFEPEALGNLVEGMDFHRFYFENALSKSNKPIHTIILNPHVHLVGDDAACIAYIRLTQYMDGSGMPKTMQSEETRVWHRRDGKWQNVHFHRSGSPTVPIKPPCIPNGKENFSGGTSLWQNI
Sequence of Glucocorticoid (P04150 whole entry): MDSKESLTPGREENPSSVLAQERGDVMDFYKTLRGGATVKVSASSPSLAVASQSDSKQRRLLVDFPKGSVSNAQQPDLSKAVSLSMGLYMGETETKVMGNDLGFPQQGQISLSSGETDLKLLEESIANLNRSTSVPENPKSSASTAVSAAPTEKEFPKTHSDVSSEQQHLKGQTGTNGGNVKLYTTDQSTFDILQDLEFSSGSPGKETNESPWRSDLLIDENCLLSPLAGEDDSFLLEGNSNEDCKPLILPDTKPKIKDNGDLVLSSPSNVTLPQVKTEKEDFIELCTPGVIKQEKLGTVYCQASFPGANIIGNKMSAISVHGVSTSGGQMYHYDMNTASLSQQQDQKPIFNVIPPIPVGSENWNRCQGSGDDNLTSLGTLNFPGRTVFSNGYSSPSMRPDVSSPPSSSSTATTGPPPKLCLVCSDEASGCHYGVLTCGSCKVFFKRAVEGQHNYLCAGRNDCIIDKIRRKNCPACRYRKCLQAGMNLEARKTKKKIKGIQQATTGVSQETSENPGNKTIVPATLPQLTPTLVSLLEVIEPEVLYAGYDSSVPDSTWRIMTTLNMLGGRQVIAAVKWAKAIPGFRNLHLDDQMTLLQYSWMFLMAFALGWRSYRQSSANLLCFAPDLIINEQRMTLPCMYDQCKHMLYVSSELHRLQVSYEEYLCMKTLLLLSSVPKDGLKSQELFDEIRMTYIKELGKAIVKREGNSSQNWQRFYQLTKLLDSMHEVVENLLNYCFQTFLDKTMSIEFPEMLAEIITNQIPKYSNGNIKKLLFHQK
Sequence of HIPK4(h) (Q8NE63 whole entry): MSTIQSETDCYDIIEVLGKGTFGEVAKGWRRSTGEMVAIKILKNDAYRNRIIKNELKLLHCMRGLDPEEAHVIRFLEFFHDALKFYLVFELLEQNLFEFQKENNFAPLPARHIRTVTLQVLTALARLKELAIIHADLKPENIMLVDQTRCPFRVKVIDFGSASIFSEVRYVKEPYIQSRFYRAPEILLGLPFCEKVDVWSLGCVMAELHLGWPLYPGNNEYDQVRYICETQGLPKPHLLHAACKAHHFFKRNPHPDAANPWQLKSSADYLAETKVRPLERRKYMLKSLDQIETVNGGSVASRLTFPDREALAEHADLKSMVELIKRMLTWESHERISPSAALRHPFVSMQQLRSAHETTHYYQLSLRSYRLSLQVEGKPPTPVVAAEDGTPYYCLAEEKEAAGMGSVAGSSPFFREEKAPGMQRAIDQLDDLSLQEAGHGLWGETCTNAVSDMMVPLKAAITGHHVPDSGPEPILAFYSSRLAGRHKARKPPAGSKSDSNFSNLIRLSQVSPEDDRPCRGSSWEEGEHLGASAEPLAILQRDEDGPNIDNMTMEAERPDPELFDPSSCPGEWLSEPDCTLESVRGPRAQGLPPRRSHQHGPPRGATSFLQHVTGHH

COc1ccc(OC)c(NS(=O)(=O)c2ccc(NC(=O)CCSc3ccc(C)cc3)cc2)c1 [Compound A41]
Activity(%) [1]: 92% | Activity(%) [2]: 103% | % inh. [3]: 17% | Activity(%) [4]: 103% | Activity(%) [5]: 105% | % inh. [6]: -8% | Activity(%) [7]: 108% | Activity(%) [8]: 90% | Inhibition of RAC1 activity (nucleotide exchange assay) [9]: 46% | TRIO-induced GDP dissociation ([9]; A41 5 μM, mant-GDP-bound RAC1, GTP 1 μM): no effect | inhibitory effect on TRIO-induced nucleotide exchange ([9]; A41 5 μM, mant-GTP 5 μM): abolished | inhibitory effect on TRIO-induced nucleotide exchange ([9]; A41 5 μM, mant-GTP increased from 1 to 2.5 μM): strongly decreased | plateau (Kmax) of nucleotide exchange ([9]; TIAM DH-PH 10 nM, mant-GTP 1 μM, concentration-dependent): decreased the plateau | spontaneous activity of RAC1 ([9]; no GEF): without affecting | Activity(%) [10]: 115%
